Measured values as given in paper PMC8347148, “An Evaluation of Human Induced Pluripotent Stem Cells to Test for Cardiac Developmental Toxicity” (International Journal of Molecular Sciences, 2021).
Values after ≈ are worked out from the molar mass of the structure shown. Like-named read-outs stand apart in the source and are kept apart here.

Experiments:
[1] = tested on: differentiating hiPSCs (hiPSC-cardiomyocytes); test: hiPSC-EST cardiac viability assay (MTT); type: cell-based, human; details: for IC50: Homo sapiens, 600 h
Protocol: 5-flurorouracil (5-FU), all-trans retinoic acid (atRA), and penicillin G (PenG) were selected from a subset of chemicals used in the original EST validation study. 5-FU and atRA were selected as positive test compounds due to their established embryotoxic potential while PenG was used as a negative control. All chemicals were purchased from Sigma. Stock solutions were prepared in DMSO and filtered through a 0.2 micron Acrodisc® PSF Syringe Filter (Pall Corporation, Port Washington, NY, USA), aliquoted into sterile microcentrifuge tubes and stored at −20 °C until use. Test chemicals were serially diluted to final concentrations in differentiation media. Cardiogenic cultures were treated with designated chemicals (or solvent only) through day 25 of differentiation and hFF cultures were treated with each compound for a 25 day duration period. Compounds were replenished with each medium change.
A University of Kentucky smoking machine was used to produce smoke extract solutions from commercially available conventional Marlboro Red 100 brand cigarettes as previously described. The smoking machine took a 2.2 s puff of mainstream (MS) smoke every minute. Smoke solution concentrations were made in puff equivalents (PE), which are the number of cigarette puffs dissolved in 1 mL of medium. MS smoke solutions were produced by pulling 30 puffs of MS smoke through 10 mL of DMEM. Resulting 3 PE smoke extracts were filtered through a 0.2 micron Acrodisc® PSF Syringe Filter (Pall Corporation, Port Washington, NY, USA), aliquoted into sterile microcentrifuge tubes, and stored at −80 °C until use. Serial dilutions were performed in differentiation medium to reach desired final exposure concentrations. Cardiogenic cultures were treated with smoke solutions through 25 days of differentiation. Smoke solutions were replenished with each medium change.
A 10% (w/v) Camel Snus extract was prepared as previously described. Ten grams of Snus was added to 85 mL of DMEM and allowed to incubate at 37 °C for 2 h. This initial extract solution was centrifuged for 10 min at 4500× g. Supernatant from the first round of centrifugation was then centrifuged again at 13,000× g for 1 h. The resulting supernatant was collected and pH adjusted to 7.4. 15 mL of FBS was added to the pH-adjusted Snus extract to produce a 10% stock solution of Snus tobacco extract (STE). The stock solution was then sterile-filtered with a 0.22 μm vacuum filter system. STE was aliquoted into sterile microcentrifuge tubes and stored at −80 °C until use. Serial dilutions were performed in differentiation medium to reach desired final exposure concentrations. Cardiogenic cultures were treated with STE through 25 days of differentiation. STE was replenished with each medium change.
Cardiomyocyte survival following concurrent exposure to each compound was evaluated by 3-[4,5-dimethylthiazol-2-yl]-2,5-diphenylterazolium bromide (MTT) assay from three independent differentiations each carried out in technical quintuplicate as previously described. On day 25 of differentiation, cells were incubated with MTT (5 mg/mL) for 2 h at 37 °C. MTT supernatant was removed and replaced with a desorb solution of 0.7% SDS in 2-propanol. The absorbance of the solution was measured at 570 nm in an iMark™ microplate reader (Bio-Rad) with 655 nm as a reference wavelength. Here, mitochondrial dehydrogenase activity on the MTT in solution is directly proportional to a blue-purple product that is detected at 570 nm.
(§1) Half-maximal inhibitory compound doses of differentiation (ID50) and cytotoxicity (IC50) were determined from concentration-response curves using GraphPad Prism.

hiPSC = test: hiPSC-EST biostatistical prediction model; set-up: species or system human; details: for hiPSC (day 25 cluster) Biostatistical Embryotoxicity Classification: EST prediction model with contractile ID50, hiPSC IC50 and hFF IC50; for hiPSC (day 10 qPCR) Biostatistical Embryotoxicity Classification: EST prediction model with d10 TBX5 ID50
Description: The prediction model uses a series of equations to perform a linear discriminant analysis using determined IC50 and ID50 values determined from dose–response curves. […] Importantly, half-maximal concentrations found for 5-FU and atRA were decades lower than the maximum plasma concentration (Cmax) achieved during human exposure underscoring the strong potential of these two compounds to elicit embryotoxic outcomes in vivo.
To compare the efficacy of qPCR-based embryotoxicity classifications versus contractile assay-based classifications, the ID50 values generated from 5-FU and atRA TBX5 mRNA dose–response curves were compared against the ID50 values from the contractile assay curves in the EST biostatistical model.

3T3 fibroblast cells = tested on: 3T3 fibroblast cells; set-up: method as in PMID 14761682; details: mESC-EST, 3T3 viability; previously obtained in the authors' lab; cited from earlier work
mESCs = tested on: mESCs; set-up: method as in PMID 14761682; details: mESC-EST, inhibition of differentiation; previously obtained in the authors' lab; cited from earlier work
[2] = maximum plasma concentration, human exposure; cited from earlier work
MEF2c mRNA expression = test: day 10 qPCR of MEF2c in differentiating hiPSCs; type: cell-based, human
Description: One of the main critiques of traditional developmental toxicity evaluations is the length of time and technical training required to successfully complete assays. As such, a shorter, quantifiable, and correct in vitro embryotoxicity assessment could improve throughput without sacrificing accuracy. Given the correct predictions achieved with contraction counts described above, we next investigated if our approach could be modified with a shorter, qPCR-based endpoint to determine differentiation inhibition. Here, we selected two cardiogenesis-specific transcription factors, TBX5 and MEF2c, to determine if the adverse differentiation outcomes would already be detectable as changes in TBX5 and MEF2c expression on day 10 of differentiation.
RNA was extracted from three wells per biological replicate using the protocol from NucleoSpin RNA II kit (Macherey-Nagel, Mountain View, CA, USA) and pooled. RNA from three independent differentiations was then quantified using a NanoDrop® 1000 spectrophotometer (ThermoFisher Scientific, Grand Island, NY, USA) at 260 nm. 25 ng of total RNA was used as a template for cDNA synthesis with a mastermix including 5 µL 5× reaction buffer, 1.25 µL 10 mM dNTPs, 1.25 µL 400 U/µL RNase inhibitor, 0.1 µL 200 U/µL reverse transcriptase, 0.1 µL 3 µg/µL random primer, and 1.5 µL DEPC H2O for a total of 25 µL per reaction. 25 ng cDNA transcripts were used for quantitative polymerase chain reaction (qPCR) SYBR green technology on the MyiQ cycler (Bio-Rad). The reactions were setup for 10 min of denaturing at 94 °C (initial), followed by 40 cycles of denaturing at 94 °C, and annealing at 60 °C each 45 s. The n-fold expression in target samples was calculated with the ΔΔCT method by standardizing Ct values to GAPDH expression. Primer sequences for human GAPDH were 5′-[…]-3′ and 5′-[…]-3′. Target genes were cardiogenic markers TBX5 and MEF2c. Primer sequences for human TBX5 were 5′-[…]-3′ and 5′-[…]-3′ and primer sequences for human MEF2c were 5′-[…]-3′ and 5′-[…]-3′ [27].
as §1

[3] = read-out: hiPSC IC50, day 25, MTT, 50% inhibition of viable cells vs control
[4] = day 25, MTT, 50% inhibition of viable cells vs control

## O=c1[nH]cc(F)c(=O)[nH]1 [5-Fluorouracil, 5-fluorouracil]
[1]; [3]
  IC50: 4.7e-05 µg/mL (≈ 0.000361 µM)
[1]; MTT, Figure 4A
  concentrations with reductions in hiPSC cell viability: above 1 × 10^−6 μg/mL
[1]; [4]
  hiPSC IC50: 4.726e-05 µg/mL
hiPSC
  hiPSC (day 25 cluster) Biostatistical Embryotoxicity Classification: Strongly embryotoxic
  hiPSC (day 10 qPCR) Biostatistical Embryotoxicity Classification: Strongly embryotoxic
3T3 fibroblast cells
  mESCs 3T3 IC50: 0.05 µg/mL
mESCs
  mESCs ID50: 0.0097 µg/mL
[2]
  Cmax: 0.94 [13] μg/mL
MEF2c mRNA expression; day 10
  effect on MEF2c mRNA expression: No reductions in MEF2c mRNA expression

## CC1=C(/C=C/C(C)=C/C=C/C(C)=C/C(=O)O)C(C)(C)CCC1 [All-Trans Retinoic Acid, all-trans retinoic acid]
[1]; day 25, MTT, 50% inhibition of viable cells vs control, read-out: hiPSC IC50
  IC50: 3.64 µg/mL (≈ 12.1 µM)
hiPSC
  hiPSC (day 25 cluster) Biostatistical Embryotoxicity Classification: Strongly embryotoxic
  hiPSC (day 10 qPCR) Biostatistical Embryotoxicity Classification: Strongly embryotoxic
3T3 fibroblast cells
  mESCs 3T3 IC50: 2.7 µg/mL
mESCs
  mESCs ID50: 0.0017 µg/mL
[2]
  Cmax: 0.155–0.294 [13] μg/mL
MEF2c mRNA expression; day 10
  doses with steady decline in MEF2c mRNA expression: above 1 × 10^−3 μg/mL
  effect on MEF2c mRNA expression: dose-dependently downregulated
MEF2c mRNA expression; day 10 of differentiation
  MEF2c mRNA ID50: 0.04 µg/mL

## CC1(C)S[C@@H]2[C@H](NC(=O)Cc3ccccc3)C(=O)N2[C@H]1C(=O)O [Penicillin G, penicillin G]
[1]; [3]
  IC50: < 1000 µg/mL
[1]; [4]
  hiPSC IC50: >1000 µg/mL
[1]; tested concentration range
  effect on hiPSC cell viability: did not find any reduced cell survival
hiPSC
  hiPSC (day 25 cluster) Biostatistical Embryotoxicity Classification: Not embryotoxic
  hiPSC (day 10 qPCR) Biostatistical Embryotoxicity Classification: Not embryotoxic
hiPSC; listed as PenG
  hiPSC (day 25 cluster) Biostatistical Embryotoxicity Classification: non-embryotoxic
  hiPSC (day 10 qPCR) Biostatistical Embryotoxicity Classification: non-embryotoxic
3T3 fibroblast cells
  mESCs 3T3 IC50: 1000 µg/mL
mESCs
  mESCs ID50: 750 µg/mL
[2]
  Cmax: 134.6 [12] μg/mL
MEF2c mRNA expression; day 10
  effect on MEF2c mRNA expression: remained largely unchanged
